These results are taken from article PMC8558867, “Development of BromoTag: A “Bump-and-Hole”–PROTAC System to Induce Potent, Rapid, and Selective Degradation of Tagged Target Proteins” (Journal of Medicinal Chemistry, 2021).

One assay has as its system BromoTag-Brd2. Nature of the assay: Dose–response degradation assay (western blot, 6 h) in heterozygous BromoTag-Brd2 HEK293 cells. The class given is cell-based, human. The note with it: for DC50 / Dmax of BromoTag-Brd2 degradation / hook effect: 6 h; for DC50: read-out: DC50 of BromoTag-Brd2 degradation; for Dmax (%) (Ab: Brd2) / Dmax (%) (Ab: Brd4^BD2 L387A) / pDC50 (Ab: Brd2) / pDC50 (Ab: Brd4^BD2 L387A): BromoTagged-Brd2, 6 h; for pDC50 (Ab: Brd2) / pDC50 (Ab: Brd4^BD2 L387A): mean ±S.E of three independent experiments; for hook effect: higher concentrations of 1–10 μM; for pDmax (%) (Ab: Brd4BD2 L387A) / pDmax (%) (Ab:Brd2): supplementary CSV. (In general: Immunoblotting shows a protein as a band on a membrane.)

For assay [1], the system named is untagged Brd2, Brd3, Brd4. Nature of the assay: Off-target degradation of endogenous BET proteins (western blot) in heterozygous BromoTag-Brd2 HEK293 cells. The class given is cell-based, human. From the text: To establish the BromoTag platform and support the degrader structure–activity relationships (SARs) to identify the best compound, we sought a practical and simple system that enables us to best optimize not only the degradation efficiency but also the selectivity profile of our degraders. To this end, the endogenous BET family protein Brd2 was chosen as a model target due to the availability of a well-established antibody for Brd2 detection, and the expression of a single protein isoform detected as a single band in the western blot.[24] Because Brd2 contains endogenous bromodomains and is degraded by 1 and other BET PROTACs, we reasoned that a heterozygous knock-in cell line allows us to monitor simultaneously both on-target degradation (BromoTagged-Brd2) and off-target degradation (untagged Brd2) using the same antibody. Together with the potential off-target degradation of the other BET proteins Brd3 and Brd4, this system thus enables us to best monitor protein degradation selectivity. We therefore decided to add the BromoTag at the N-terminus of the endogenous Brd2 gene locus using CRISPR knock-in methodologies, thereby yielding a chimeric protein bearing three bromodomains (the exogenous BromoTag, in addition to the endogenous Brd2^BD1 and Brd2^BD2). Hereafter, we refer to on-target activity as the degradation of BromoTag-Brd2 and off-target activity as any degradation of either untagged Brd2 or endogenous Brd3 or Brd4.
All dose–response degradation assays were performed on the genotype-verified heterozygous BromoTag-Brd2 HEK293 cell line. Heterozygous BromoTag-Brd2 HEK293 cells were plated at a density of 5 × 10^5 cells per well of a six-well healthy plate a day before initiation of the titration experiment. PROTAC compounds were dissolved in DMSO at a concentration of 10 mM; from these stock concentrations, PROTAC compounds were diluted to appropriate concentrations using DMSO in the range of 10 μM to 1 nM. The compounds were then added to 2 mL of DMEM (Invitrogen, Carlsbad, CA, USA) supplemented with 10% (v/v) FBS (Thermo Fisher, Waltham, MA, USA) and 1% (v/v) penicillin/streptomycin (pen/strep) (#15140122, Thermo Fisher, Waltham, MA, USA) and added to the cells while initiating the experiment. Control compounds such as MZ1 and cis-MZ1 were similarly dissolved in DMSO to an appropriate concentration. All titration experiments were performed for a total of 6 h prior to being harvested and were kept at 37 °C, 5% CO2, and 95% humidity once treatment was applied until right before harvesting. The cells were washed twice with PBS before being harvested.
All cells were harvested on ice with RIPA lysis and extraction buffer (Thermo Fisher Scientific, 89901) supplemented with protease inhibitor cocktail (Merck, 11697498001) and Benzonase Nuclease (Sigma, E1014) before being stored at −20 °C prior to use. Total protein quantity was determined using the BCA protein assay (#23225, Pierce, Rockford, Illinois). The protein concentration was determined using the BCA assay (Thermo Fisher Scientific, 23225). The samples were then prepared and loaded onto NuPAGE 4–12% bis–tris Midi gels (Thermo Fisher Scientific, WG1403A), followed by the transfer of proteins onto nitrocellulose membranes (EMD Millipore). The membranes were blocked for 1 h prior to incubation with the primary antibodies using 5% Milk TBST. The membranes were probed for Brd2 (Abcam, Ab139690, 1:1000), Brd3 (Abcam, Ab50818, 1:4000), Brd4 (Abcam, Ab128874, 1:1000), or our polyclonal Brd4^BD2 L387A antibody. Following overnight incubation with the primary antibodies at 4 °C, the membranes were incubated with secondary antibodies (anti-rabbit, Abcam AB216773, 1:5000 or anti-mouse, Abcam AB216774, 1:5000) and hFABTM rhodamine anti-tubulin antibody (Biorad, 12004165, 1:10,000) for 1 h and then imaged with a Bio-Rad imager (LI-COR Biosciences). All western blots were analyzed for band intensities using Image Lab from Bio-Rad (LI-COR, Biosciences). […]

[2] abbreviates: diastereomeric mixtures, range over the two antibodies.
The mark [3] stands for this setting: 1 nM to 10 μM, 6 h, diastereomeric mixtures.

Read-outs that look alike come from different tables or passages of the source.

Consider `CCC(C(=O)NCCOCCCOCC(=O)N[C@H](C(=O)N1C[C@H](O)C[C@H]1C(=O)N[C@@H](C)c1ccc(-c2scnc2C)cc1)C(C)(C)C)C1N=C(c2ccc(Cl)cc2)c2c(sc(C)c2C)-n2c(C)nnc21` (relative stereo) [ET-ARV-771 (21), (2S,4R)-1-((2S,15R*)-2-(tert-Butyl)-15-((S*)-4-(4-chlorophenyl)-2,3,9-trimethyl-6H-thieno[3,2-f][1,2,4]triazolo[4,3-a][1,4]diazepin-6-yl)-4,14-dioxo-6,10-dioxa-3,13-diazaheptadecanoyl)-4-hydroxy-N-((S)-1-(4-(4-methylthiazol-5-yl)phenyl)ethyl)pyrrolidine-2-carboxamide], for which the 50% degradation concentration (DC50) – broadly, the concentration at which degradation of the target reaches its halfway point – in the assay on BromoTag-Brd2 (diastereomeric mixture) is roughly 1 µM. Further, in the assay on BromoTag-Brd2 (diastereomeric mixtures), the “Dmax of BromoTag-Brd2 degradation” value is on record as less than 70%, the “Dmax (%) (Ab: Brd2)” value turned out to be 51%, the “Dmax (%) (Ab: Brd4^BD2 L387A)” value was 69% and the “pDC50 (Ab: Brd2)” value turned out to be 5.7 ± 1.8. In the assay on BromoTag-Brd2 (diastereomeric mixtures), the “pDC50 (Ab: Brd4^BD2 L387A)” value worked out at 6.1 ± 0.3 and the hook effect result is given as “strong hook effect”. In addition, in the assay with BromoTag-Brd2, the “pDmax (%) (Ab: Brd4BD2 L387A)” value is recorded as 69% and the “pDmax (%) (Ab:Brd2)” value is on record as 51%.

As for `CCC(C(=O)NCCOCCOCCOCC(=O)N[C@H](C(=O)N1C[C@H](O)C[C@H]1C(=O)NCc1ccc(-c2scnc2C)cc1)C(C)(C)C)C1N=C(c2ccc(Cl)cc2)c2c(sc(C)c2C)-n2c(C)nnc21` (relative stereo) [ET-MZ1 (19), (2S,4R)-1-((2S,17R*)-2-(tert-Butyl)-17-((S*)-4-(4-chlorophenyl)-2,3,9-trimethyl-6H-thieno[3,2-f][1,2,4]triazolo[4,3-a][1,4]diazepin-6-yl)-4,16-dioxo-6,9,12-trioxa-3,15-diazanonadecanoyl)-4-hydroxy-N-(4-(4-methylthiazol-5-yl)benzyl)pyrrolidine-2-carboxamide], in the assay with BromoTag-Brd2 (diastereomeric mixtures), the “pDC50 (Ab: Brd2)” value is given as 6.5 ± 0.2, the “pDC50 (Ab: Brd4^BD2 L387A)” value was determined as 6.6 ± 0.6 and the hook effect entry is “no hook effect”. In addition, in the assay on BromoTag-Brd2 (setting [2]), the DC50 was in the range of 0.25 to 0.36 µM. Besides, the “off-target degradation of untagged Brd2 or the other endogenous BET proteins” value (shortened to “off-target degradation”) in assay [1] is recorded as “no observable off-target degradation”.

With `CC[C@@H](C(=O)OCCOCCCOCC(=O)N[C@H](C(=O)N1C[C@H](O)C[C@H]1C(=O)N[C@@H](C)c1ccc(-c2scnc2C)cc1)C(C)(C)C)[C@@H]1N=C(c2ccc(Cl)cc2)c2c(sc(C)c2C)-n2c(C)nnc21` (relative stereo) [ET-OARV-771 (25), 2-(3-(2-(((S)-1-((2S,4R)-4-Hydroxy-2-(((S)-1-(4-(4-methylthiazol-5-yl)phenyl)ethyl)carbamoyl)pyrrolidin-1-yl)-3,3-dimethyl-1-oxobutan-2-yl)amino)-2-oxoethoxy)propoxy)ethyl (R*)-2-((S*)-4-(4-chlorophenyl)-2,3,9-trimethyl-6H-thieno[3,2-f][1,2,4]triazolo[4,3-a][1,4]diazepin-6-yl)butanoate], in the assay on BromoTag-Brd2 (diastereomeric mixtures), the “Dmax of BromoTag-Brd2 degradation” value was greater than 75% and the hook effect result was “strong onset of the hook effect”. Besides, the DC50 in the assay on BromoTag-Brd2 (setting [2]) was 0.013 to 0.016 µM. Further, the “off-target degradation” value in assay [1] is recorded as “minor off-target degradation of Brd3”.

Take `CCC(C(=O)OCCOCCOCCOCC(=O)N[C@H](C(=O)N1C[C@H](O)C[C@H]1C(=O)NCc1ccc(-c2scnc2C)cc1)C(C)(C)C)C1N=C(c2ccc(Cl)cc2)c2c(sc(C)c2C)-n2c(C)nnc21` (relative stereo) [ET-OMZ1 (23), (S)-13-((2S,4R)-4-Hydroxy-2-((4-(4-methylthiazol-5-yl)benzyl)carbamoyl)pyrrolidine-1-carbonyl)-14,14-dimethyl-11-oxo-3,6,9-trioxa-12-azapentadecyl (R*)-2-((S*)-4-(4-chlorophenyl)-2,3,9-trimethyl-6H-thieno[3,2-f][1,2,4]triazolo[4,3-a][1,4]diazepin-6-yl)butanoate]: in the assay on BromoTag-Brd2 (diastereomeric mixtures), the “Dmax of BromoTag-Brd2 degradation” value is greater than 75%, the “pDC50 (Ab: Brd2)” value is reported as 7.9 ± 0.2, the “pDC50 (Ab: Brd4^BD2 L387A)” value is reported as 7.1 and the hook effect result is listed as “strong onset of the hook effect”. Moreover, the DC50 in the assay on BromoTag-Brd2 (setting [2]) was in the range of 0.013 to 0.08 µM. Besides, the “off-target degradation” value in assay [1] is recorded as “no observable off-target degradation”.

For `Cc1ncsc1-c1ccc([C@H](C)NC(=O)[C@@H]2C[C@@H](O)CN2C(=O)[C@@H](NC(=O)COCCCOCCNC(=O)C(C)C2N=C(c3ccc(Cl)cc3)c3c(sc(C)c3C)-n3c(C)nnc32)C(C)(C)C)cc1` (relative stereo) [ME-ARV-771 (20), (2S,4R)-1-((2S,15R*)-2-(tert-Butyl)-15-((S*)-4-(4-chlorophenyl)-2,3,9-trimethyl-6H-thieno[3,2-f][1,2,4]triazolo[4,3-a][1,4]diazepin-6-yl)-4,14-dioxo-6,10-dioxa-3,13-diazahexadecanoyl)-4-hydroxy-N-((S)-1-(4-(4-methylthiazol-5-yl)phenyl)ethyl)pyrrolidine-2-carboxamide], in the assay with BromoTag-Brd2 (diastereomeric mixtures), the “Dmax (%) (Ab: Brd2)” value turned out to be 60%, the “Dmax (%) (Ab: Brd4^BD2 L387A)” value is given as 70%, the “pDC50 (Ab: Brd2)” value worked out at 6.4 ± 0.6 and the “pDC50 (Ab: Brd4^BD2 L387A)” value is 6.5 ± 0.4. Besides, in the assay on BromoTag-Brd2, the “pDmax (%) (Ab: Brd4BD2 L387A)” value was determined as 70% and the “pDmax (%) (Ab:Brd2)” value is given as 60%. For the same molecule, the “off-target degradation” value in assay [1] (setting [3]) is on record as “induced undesired off-target degradation”.

Turning to `Cc1ncsc1-c1ccc(CNC(=O)[C@@H]2C[C@@H](O)CN2C(=O)[C@@H](NC(=O)COCCOCCOCCNC(=O)C(C)C2N=C(c3ccc(Cl)cc3)c3c(sc(C)c3C)-n3c(C)nnc32)C(C)(C)C)cc1` (relative stereo) [ME-MZ1 (18), (2S,4R)-1-((2S,17R*)-2-(tert-Butyl)-17-((S*)-4-(4-chlorophenyl)-2,3,9-trimethyl-6H-thieno[3,2-f][1,2,4]triazolo[4,3-a][1,4]diazepin-6-yl)-4,16-dioxo-6,9,12-trioxa-3,15-diazaoctadecanoyl)-4-hydroxy-N-(4-(4-methylthiazol-5-yl)benzyl)pyrrolidine-2-carboxamide], in the assay on BromoTag-Brd2, the “pDmax (%) (Ab: Brd4BD2 L387A)” value amounted to 90% and the “pDmax (%) (Ab:Brd2)” value was 92%. Moreover, the “off-target degradation” value in assay [1] (setting [3]) was “induced undesired off-target degradation”.

`Cc1ncsc1-c1ccc([C@H](C)NC(=O)[C@@H]2C[C@@H](O)CN2C(=O)[C@@H](NC(=O)COCCCOCCOC(=O)C(C)C2N=C(c3ccc(Cl)cc3)c3c(sc(C)c3C)-n3c(C)nnc32)C(C)(C)C)cc1` (relative stereo) [ME-OARV-771 (24), 2-(3-(2-(((S)-1-((2S,4R)-4-Hydroxy-2-(((S)-1-(4-(4-methylthiazol-5-yl)phenyl)ethyl)carbamoyl)pyrrolidin-1-yl)-3,3-dimethyl-1-oxobutan-2-yl)amino)-2-oxoethoxy)propoxy)ethyl (R*)-2-((S*)-4-(4-chlorophenyl)-2,3,9-trimethyl-6H-thieno[3,2-f][1,2,4]triazolo[4,3-a][1,4]diazepin-6-yl)propanoate]: in the assay on BromoTag-Brd2, the “pDmax (%) (Ab: Brd4BD2 L387A)” value worked out at 91% and the “pDmax (%) (Ab:Brd2)” value is 91%. Also, in assay [1] (setting [3]), the “off-target degradation” value is given as “induced undesired off-target degradation”.
